Data set [1] concerns rabbit blood platelets (platelet rich plasma), collagen-induced aggregation. Briefly: inhibition of platelet aggregation in rabbit platelet rich plasma (in vitro), induced by collagen. Type of data set: cell-based. The following applies: Oryctolagus cuniculus, Platelet, read-out: percentage of inhibition, collagen; for inhibition at 3 µg/mL: 3 μg/ml; for inhibition at 10 µg/mL: 10 μg/ml. As to the method: (§1) In this example, the inhibition of platelet aggregation in rabbit platelet rich plasma (in vitro) is tested.
(§2) In this test, 9 vol. of blood is sampled from the carotid artery of rabbits (2 to 2.5 Kg) and placed in a silicon-coated flask containing 1 vol. of 3.8% sodium citrate. The thus obtained blood is centrifuged at 1,000 rpm for 15 minutes to obtain platelet rich plasma (referred to as "PRP" hereinafter). The aggregation of blood platelets is observed using an aggregometer (made by Bryston Co.) and the degree of aggregation after the addition of aggregation promoting substances is measured by nephelometry, i.e., through increase in light transmission.
(§3) The PRP (0.9 ml) is placed in a silicon-coated cuvett of the aggregometer. Then, 0.05 ml of physiological saline solution containing various concentrations of test reagents or control reagents is added and the mixture is allowed to stand for one minute. Compounds promoting aggregation are then added and the absorbancy of the solution is measured and the percent inhibition of aggregation is calculated according to the following equation: [formula] C: Transmittancy showing the maximum percent aggregation by physiological saline solution
(§4) D: Transmittancy showing the maximum percent aggregation by sample
(§5) Test for the inhibition of platelet aggregation induced by ADP, collagen and thrombin.

The test system of data set [2] is rabbit blood platelets (platelet rich plasma), ADP-induced aggregation. Briefly: inhibition of platelet aggregation in rabbit platelet rich plasma (in vitro), induced by ADP. Type of data set: cell-based. Conditions: Oryctolagus cuniculus, Platelet, read-out: percentage of inhibition, ADP; for inhibition at 10 µg/mL: 10 μg/ml; for inhibition at 3 µg/mL: 3 μg/ml. As to the method:
as §1, §2, §3, §4, §5

Data set [3] is described as follows: acute toxicity, Behrens-Karber's method. The format is in vivo. Conditions: in vivo; mouse, oral. As for the experimental part: In this example, the acute toxicity of compounds of the invention is determined by Behrens-Karber's method using, 5 male dd-strain for each group weighing 20±1 g. A 0.3% CMC suspension of the test compound (concentration of the test compound: 100 mg/ml) is then orally administered to each mouse.

In data set [4] the test system is human platelet rich plasma, ADP-induced aggregation. Briefly: inhibition of platelet aggregation in human platelet rich plasma, induced by ADP. The following applies: human PRP, read-out: percentage inhibition, ADP. Type of data set: cell-based. As to the method:
as §2, §3, §4
(§6) In this example, the same procedures are repeated as in Example 10 except that human platelet rich plasma is used in place of rabbit platelet rich plasma.

For data set [5], the system named is human platelet rich plasma, collagen-induced aggregation. Briefly: inhibition of platelet aggregation in human platelet rich plasma, induced by collagen. The following applies: human PRP, read-out: percentage inhibition, collagen. The format is cell-based. As to the method:
as §2, §3, §4, §6

[6] abbreviates: rabbit PRP, ADP 10^-5 M, 30 μg/ml.
[7] abbreviates: rabbit PRP, ADP 10^-5 M, 100 μg/ml.

Each structure is given as a SMILES string. Where two headings read alike, the source gives them in different places. Where only a bound is given, the exact number is not on record here.

What is called inhibition is the drop in the measured response relative to a control, in per cent. What is called LD50 is the dose at which mortality reaches 50%. High values mean a less toxic substance, low ones a more toxic substance. Consider `O=C(Nc1ccccc1[N+](=O)[O-])c1ccccc1SSc1ccccc1C(=O)Nc1ccccc1[N+](=O)[O-]` [Compound XII, 2,2'-dithiobis(N-o-nitrophenylbenzamide)], for which, in data set [1], the inhibition at 30 µg/mL came to 45% and the inhibition at 100 µg/mL stood at 90%. Also, in data set [2], the inhibition at 30 µg/mL stood at 20% and the inhibition at 100 µg/mL came to 50%. The LD50 in data set [3] was at least 1000 mg/kg.

Turning to `O=C(NC1CCCCC1)c1ccccc1SSc1ccccc1C(=O)NC1CCCCC1` [Compound XXVI, 2,2'-dithiobis(N-cyclohexylbenzamide)], the inhibition at 30 µg/mL is 25% in data set [1] (rabbit PRP, 30 μg/ml) and 30% in data set [2] (setting [6]). This compound yielded an LD50 in data set [3] of at least 1000 mg/kg.

Take `O=C(c1ccccc1SSc1ccccc1C(=O)N1CCN(c2ccccc2)CC1)N1CCN(c2ccccc2)CC1` [Compound XXVIII, 2,2'-dithiobis(N'-phenylbenzpiperazide)]: in data set [1] (rabbit PRP), the inhibition at 3 µg/mL turned out to be 14%. In addition, the inhibition at 10 µg/mL is 55% in data set [1] (rabbit PRP) and 19% in data set [2] (rabbit PRP, ADP 10^-5 M). The inhibition at 30 µg/mL in data set [1] (rabbit PRP, 30 μg/ml) was 99%; in data set [2] (setting [6]), 55%. In data set [3], this compound yielded an LD50 of at least 1000 mg/kg.

Consider `CN1CCN(C(=O)c2ccccc2SSc2ccccc2C(=O)N2CCN(C)CC2)CC1` [Compound XXXII, 2,2'-dithiobis(N'-methylbenzpiperazide)], for which the inhibition at 1 µg/mL in data set [1] (rabbit PRP, 1 μg/ml) was found to be 2%. The inhibition at 3 µg/mL was 59% in data set [1] (rabbit PRP) and 26% in data set [2] (rabbit PRP, ADP 10^-5 M). In addition, the inhibition at 10 µg/mL stood at 90% in data set [1] (rabbit PRP) and 62% in data set [2] (rabbit PRP, ADP 10^-5 M). The inhibition at 30 µg/mL in data set [1] (rabbit PRP, 30 μg/ml) is 100%; in data set [2] (setting [6]) it was 100%; in data set [4] (30 μg/ml), 15%; in data set [5] (30 μg/ml) it was 34%. Also, the inhibition at 100 µg/mL was 60% in data set [4] (100 μg/ml) and 100% in data set [5] (100 μg/ml).

As for `CCOC(CN1CCN(C(=O)c2ccccc2SSc2ccccc2C(=O)N2CCN(CC(OCC)c3ccccc3)CC2)CC1)c1ccccc1` (stereo not shown) [Compound XXIX, 2,2'-dithiobis[N'-(2-phenyl-2-ethyloxyethyl)benzpiperazide]], the inhibition at 3 µg/mL in data set [1] (rabbit PRP) came out at 0%. Moreover, the inhibition at 10 µg/mL in data set [1] (rabbit PRP) came out at 55%; in data set [2] (rabbit PRP, ADP 10^-5 M), 32%. Moreover, the inhibition at 30 µg/mL in data set [1] (rabbit PRP, 30 μg/ml) turned out to be 100%; in data set [2] (setting [6]) it was 43%. Besides, in data set [3], the LD50 is at least 1000 mg/kg.

For `CCCCCCCCCCCC(=O)OCCCNC(=O)c1ccccc1SSc1ccccc1C(=O)NCCCOC(=O)CCCCCCCCCCC` [Compound XXI, 2,2'-dithiobis(N-dodecanoyloxypropylbenzamide)], the inhibition at 30 µg/mL is 0% in data set [1] (rabbit PRP, 30 μg/ml) and 5% in data set [2] (setting [6]). The inhibition at 100 µg/mL in data set [1] (rabbit PRP, 100 μg/ml) was determined as 33%; in data set [2] (setting [7]), 32%.

Take `CCCCCCCCCCCCCCCC(=O)OCCCNC(=O)c1ccccc1SSc1ccccc1C(=O)NCCCOC(=O)CCCCCCCCCCCCCCC` [Compound XXII, 2,2'-dithiobis(N-hexadecanoyloxypropylbenzamide)]: the inhibition at 30 µg/mL in data set [1] (rabbit PRP, 30 μg/ml) was determined as 0%; in data set [2] (setting [6]), 0%. In addition, the inhibition at 100 µg/mL in data set [1] (rabbit PRP, 100 μg/ml) is 18%; in data set [2] (setting [7]) it was 40%.

`O=C(Nc1ccccc1Cl)c1ccccc1SSc1ccccc1C(=O)Nc1ccccc1Cl` [Compound X, 2,2'-dithiobis(N-o-chlorophenylbenzamide)]: the inhibition at 10 µg/mL turned out to be 4% in data set [1] (rabbit PRP) and 0% in data set [2] (rabbit PRP, ADP 10^-5 M). The inhibition at 30 µg/mL turned out to be 63% in data set [1] (rabbit PRP, 30 μg/ml) and 24% in data set [2] (setting [6]). Further, the inhibition at 100 µg/mL in data set [1] (rabbit PRP, 100 μg/ml) stood at 100%; in data set [2] (setting [7]) it was 96%. This compound yielded an LD50 in data set [3] of at least 1000 mg/kg.

Turning to `COC(CNC(=O)c1ccccc1SSc1ccccc1C(=O)NCC(OC)OC)OC` [Compound XXXIV, 2,2'-dithiobis(N-2,2-di-methoxyethylbenzamide)], the inhibition at 3 µg/mL in data set [1] (rabbit PRP) stood at 21%; in data set [2] (rabbit PRP, ADP 10^-5 M), 21%. Moreover, the inhibition at 10 µg/mL in data set [1] (rabbit PRP) is 87%; in data set [2] (rabbit PRP, ADP 10^-5 M), 35%. Further, the inhibition at 30 µg/mL in data set [1] (rabbit PRP, 30 μg/ml) was found to be 100%; in data set [2] (setting [6]) it was 83%.

`O=C(NC1CCC(O)CC1)c1ccccc1SSc1ccccc1C(=O)NC1CCC(O)CC1` (stereo not shown) [Compound XXXVI, 2,2'-dithiobis[N-(4-hydroxycyclohexyl)benzamide]]: the inhibition at 30 µg/mL in data set [1] (rabbit PRP, 30 μg/ml) was 8%. Besides, the inhibition at 100 µg/mL was determined as 95% in data set [1] (rabbit PRP, 100 μg/ml) and 35% in data set [2] (setting [7]).

Regarding `CCCCCCCCCCCC(=O)OC(C)CNC(=O)c1ccccc1SSc1ccccc1C(=O)NCC(C)OC(=O)CCCCCCCCCCC` (stereo not shown) [Compound XXIII, 2,2'-dithiobis(N-2-dodecanoyloxypropylbenzamide)], the inhibition at 30 µg/mL in data set [1] (rabbit PRP, 30 μg/ml) worked out at 52%; in data set [2] (setting [6]) it was 19%. Further, the inhibition at 100 µg/mL in data set [1] (rabbit PRP, 100 μg/ml) was 100%; in data set [2] (setting [7]), 93%.

Turning to `O=C(c1ccccc1SSc1ccccc1C(=O)N(c1ccccc1)c1ccccc1)N(c1ccccc1)c1ccccc1` [Compound XIII, 2,2'-dithiobis(N-diphenylbenzamide)], the inhibition at 30 µg/mL in data set [1] (rabbit PRP, 30 μg/ml) is 12.2%; in data set [2] (setting [6]) it was 16%. For the same compound, the inhibition at 100 µg/mL in data set [1] (rabbit PRP, 100 μg/ml) was 47%; in data set [2] (setting [7]), 60%.

Turning to `O=C(NC(CO)(CO)CO)c1ccccc1SSc1ccccc1C(=O)NC(CO)(CO)CO` [Compound XLI, 2,2'-dithiobis[N-2-hydroxy-1,1-di-(1'-hydroxymethyl)-ethylbenzamide]], the inhibition at 30 µg/mL in data set [1] (rabbit PRP, 30 μg/ml) stood at 7%; in data set [2] (setting [6]), 22%. The inhibition at 100 µg/mL in data set [1] (rabbit PRP, 100 μg/ml) came out at 96%; in data set [2] (setting [7]) it was 71%. The compound further registered an LD50 in data set [3] of at least 1000 mg/kg.

As for `CCCCNC(=O)c1ccccc1SSc1ccccc1C(=O)NCCCC` [Compound I, 2,2'-dithiobis(N-n-butylbenzamide)], the inhibition at 30 µg/mL in data set [1] (rabbit PRP, 30 μg/ml) stood at 16.5%; in data set [2] (setting [6]), 13.4%. Moreover, the inhibition at 100 µg/mL came to 100% in data set [1] (rabbit PRP, 100 μg/ml) and 46.6% in data set [2] (setting [7]). For the same compound, the LD50 in data set [3] is at least 300 mg/kg.

For the compound `O=C(c1ccccc1SSc1ccccc1C(=O)N1CCN(C(c2ccccc2)c2ccccc2)CC1)N1CCN(C(c2ccccc2)c2ccccc2)CC1` [Compound XXXIII, 2,2'-dithiobis(N'-diphenylmethylbenzpiperazide)], the inhibition at 30 µg/mL is 22% in data set [1] (rabbit PRP, 30 μg/ml) and 16% in data set [2] (setting [6]).

`O=C(NCc1ccccc1)c1ccccc1SSc1ccccc1C(=O)NCc1ccccc1` [Compound II, 2,2'-dithiobis(N-benzylbenzamide)]: the inhibition at 100 µg/mL stood at 1.2% in data set [1] (rabbit PRP, 100 μg/ml) and 2.7% in data set [2] (setting [7]). This compound also had an LD50 in data set [3] of at least 300 mg/kg.

For the compound `CCCCN(CCCC)C(=O)c1ccccc1SSc1ccccc1C(=O)N(CCCC)CCCC` [Compound VIII, 2,2'-dithiobis(N-dibutylbenzamide)], the inhibition at 30 µg/mL in data set [1] (rabbit PRP, 30 μg/ml) came to 0%; in data set [2] (setting [6]), 0%. Moreover, the inhibition at 100 µg/mL in data set [1] (rabbit PRP, 100 μg/ml) turned out to be 13%; in data set [2] (setting [7]), 9%. Further, in data set [3], the LD50 is at least 1000 mg/kg.

Regarding `O=C(NCC(O)c1ccccc1)c1ccccc1SSc1ccccc1C(=O)NCC(O)c1ccccc1` (stereo not shown) [Compound XXXVIII, 2,2'-dithiobis(N-2-hydroxy-2-phenylethylbenzamide)], the inhibition at 100 µg/mL was 19% in data set [1] (rabbit PRP, 100 μg/ml) and 12% in data set [2] (setting [7]).

Take `O=C(c1ccccc1SSc1ccccc1C(=O)N1CCN(CC=Cc2ccccc2)CC1)N1CCN(CC=Cc2ccccc2)CC1` [Compound XXX, 2,2'-dithiobis[N'-(3-phenyl-propene-1-yl)benzpiperazide]]: the inhibition at 30 µg/mL came out at 40% in data set [1] (rabbit PRP, 30 μg/ml) and 17% in data set [2] (setting [6]). In data set [3], this compound gave an LD50 of at least 1000 mg/kg.

The values are drawn from patent US4705805A, “Antithrombotic agent” (priority 1978, dated 1987).
